# Patent EP0300806A1, “Opioid analgesic liposomal delivery-release system” (VESTAR, INC., priority 1987, dated 1989)
# Structures can show the parent of a compound that is named as a salt.
# Key:
# [1] = test system: phenylquinone-induced writhing; assay: phenylquinone-induced writhing assay, analgesia after i.m. injection; type: in vivo, Mice
# Method: Duration of analgesia was evaluated using the phenylquinone-induced writhing assay essentially as described by Pircio et al. R.W. Pircio, J.A. Gylys, R.L. Cavanagh, J.P. Buyniski and M.E. Bierwagen, 220 Archives Internationales de Pharmacodynamie et de Therapie, 231-57 (1976). Mice were given intraperitoneal injections of 0.025% (w/v) phenyl-p-quinone in 5% ethanol (2.5 mg/kg). […] The writhing phenomenon has been described by Siegmund et al. E. Siegmund, R. Cadmus, G. Lu, 95 Proceedings of the Society for Experimental Biology and Medicine, 729-31 (1957). Five animals per observer was established as a manageable procedure yielding values which were reproducible and consistent from observer to observer. […]
# The dose required for single injection ED₅₀ and ED₁₀₀ of free butorphanol tartrate was determined by administering various doses of free drug intramuscularly 15 minutes prior to the i.p. injections of phenylquinone. […] The ED₅₀ and ED₁₀₀ values determined in this study were compared for agreement with reported literature values and used along with control values as a reference standard for each study. […]
# Extended analgesia studies were conducted using no fewer than 50 animals per treatment group. […] The times at which analgesic effect was measured were based on the particular treatment and on the results of the previous bioassays for the treatment group.
# [2] = test system: phenylquinone-induced writhing; assay: tolerance (tachyphylaxis) studies: shift of ED50 of free butorphanol tartrate in the writhing assay after pretreatment; type: in vivo, mice
smiles,measurement,setting,value
"Oc1ccc2c(c1)C13CCCCC1(O)C(C2)N(CC1CCC1)CC3 (stereo not drawn) [free butorphanol tartrate, butorphanol tartrate]",effect of higher doses on duration of analgesia,"[1]; 2 ug, 50 ug and 500 ug dose curves, Fig. 1",do not provide extended efficacy
same,ED50,"[1]; Mus musculus, im, 0.25 h, untreated mice, single i.m. injection of free drug 15 minutes prior to i.p. phenylquinone, read-out: ED₅₀",0.05 mg/kg
same,36 hr. ED₅₀,"[2]; 5 injections of 100 ug/kg at 3 hr. intervals, second protocol, Fig. 6",suggestive of recovery from tachyphylaxis
same,ED50,"[2]; Mus musculus, im, after four i.m. injections of 50 ul saline at 3 hr. intervals, determined 13 hrs. after start, read-out: ED₅₀ for free butorphanol tartrate after multiple injections of saline",~0.125 mg/kg
same,increase in ED₅₀ values between no treatment animals and multiple injection animals,"[2]; after 4 injections of the ED₁₀₀ dose at 3 hr. intervals, first protocol, Fig. 2",4-5 fold
same,shift of ED₅₀ relative to its initial value,"[2]; pretreatment with 4 injections of 100 ug/kg, Fig. 4 bottom panel",approximately 4 times its initial value
